SMILES strings stand for the structures.

Regarding `CC1(c2cccs2)NC(=O)NC1=O` (stereo not given), the melting point fell in the range of 137 to 139 °C.
As for `Nc1cc(-c2ccco2)nn1-c1ccc(Cl)cc1`, the melting point was in the range of 129 to 131 °C.
On to `O=C(O)/C=C/c1csc2ccccc12`, for which the melting point fell in the range of 225 to 227 °C.
For `O=C(CCl)Nc1ccc2c(c1)CCC2` the value was 112 to 114 °C.
In turn, `CN1CCC(N(C)c2ccc(N)cc2)CC1` gave a melting point of 62 to 64 °C.
Next, `Nc1nncn1Cc1ccccc1`: 210 to 212 °C; `COC(=O)c1sc(N)nc1C`: 171 to 174 °C.
As for `NC(=O)C1(Nc2ccccc2)CCCCC1`, the melting point is 148 to 150 °C.
Next, `CC(NC(=O)c1ccoc1)C(=O)O` (stereo not given): 166 to 168 °C; `COC(=O)c1cc(S(=O)(=O)Cl)ccc1C`: 44 to 46 °C; `CC(C)CC(=O)Cc1ccc(Cl)cc1Cl`: 28 to 30 °C.
`Cc1ccc(C(=O)C(=O)c2ccccc2)cc1C` showed a melting point of 63 to 65 °C.
With `COc1ccc(CBr)cc1C#N`, the melting point fell in the range of 119 to 121 °C.
In turn, `CCCCc1c(C)nc2nc(S)nn2c1C` returned a melting point of 248 to 250 °C.
`Cc1csc(C2(N)CCCC2)n1` gave a melting point of 59 to 61 °C.
For `O=C(O)c1ccc(-c2ccc([N+](=O)[O-])cc2Cl)o1` the value was 251 to 253 °C.
For `O=[N+]([O-])c1cccc(Sc2ccccc2)c1` the value was 38 to 40 °C.
For `CC(=O)NC(CC(=O)O)c1ccc(F)cc1F` (stereo not given), the melting point lay within 149 to 151 °C.
For `NC(=NO)C1CN(Cc2ccccc2)CCO1` (stereo not given) the value was 116 to 118 °C; for `Fc1cc2nc(Cl)ccc2cc1Br`, 161 to 163 °C.
Next, `O=C(O)CCCn1ccccc1=O`: 121 to 123 °C.
For `CCn1c(S)nc2cc(S(=O)(=O)N3CCOCC3)ccc21` the value was 227 to 229 °C; for `Cc1ncsc1-c1cnco1`, 96 to 98 °C.
In the case of `Cc1noc(C2CC2)c1C(=O)O`, the melting point is 164 to 166 °C.
Molecule `Nc1ccc(CN2C(=O)Cc3ccc(Cl)cc32)cc1` yielded a melting point of 129 to 131 °C.
With `CC(C)(C)OC(=O)NC(CO)CO`, the melting point is 83 to 85 °C.
Turning to `NS(=O)(=O)c1ccc2c(c1)oc(=O)n2CC(=O)O`, the melting point fell in the range of 168 to 170 °C.
In the case of `COc1cc(N)ccc1S(N)(=O)=O`, the melting point fell in the range of 241 to 243 °C.
For `CN(C)S(=O)(=O)c1ccc(O)cc1` the value was 95 to 97 °C.
For `Cc1nc(-c2cccc(NC(=O)CCl)c2)cs1`, the melting point fell in the range of 45 to 47 °C.
Molecule `CCOC(=O)/C(C#N)=C(\N)C(Cl)(Cl)Cl` showed a melting point of 94 to 96 °C.
Regarding `O=c1[nH]ccc2sccc12`, the melting point fell in the range of 159 to 161 °C.
For `CCOC(=O)COc1ccc(S(C)(=O)=O)cc1[N+](=O)[O-]` the value was 131 to 133 °C; for `O=C(O)c1c[nH]nc1-c1ccc(Cl)cc1`, 276 to 278 °C.
`Nc1ccccc1N1CC(C(F)(F)F)OC1=O` (stereo not given) returned a melting point of 74 to 76 °C.
For the molecule `CC1(C)SC[C@H](C(=O)O)NC1=O`, the melting point fell in the range of 205 to 207 °C.
Next, `Clc1cc(Cl)cc(-c2nnc3ccc(Cl)nn23)c1`: 209 to 211 °C; `NC(C(=O)O)c1ccccc1C(F)(F)F` (stereo not given): 282 to 284 °C.
Next, `Cc1cc(N)ccc1C(=O)OC(C)(C)C`: 69 to 71 °C; `NCC(CCC(=O)O)C(F)(F)F` (stereo not given): 155 to 157 °C; `N#Cc1c(N)nc2sc(C(=O)Nc3ccc(Br)cc3)c(N)c2c1-c1ccco1`: 257 to 259 °C.
Next, `COc1ccc2c(c1)CC(C(=O)O)CO2` (stereo not given): 120 to 122 °C; `CCOc1cc(C#N)cc(Br)c1O`: 140 to 142 °C; `COCCNc1nc2ccccc2[nH]1`: 170 to 172 °C.
As to `COC(=O)c1ccc(N)c([N+](=O)[O-])c1`, the melting point was in the range of 201 to 203 °C.
Next, `Oc1nc(-c2ccc(Cl)cc2)cs1`: 218 to 220 °C; `NC(=O)NCC1CC1`: 117 to 119 °C; `CCc1noc(-c2ccc(C)c(N)c2)n1`: 77 to 79 °C.
As for `Sc1nnc(-c2cccnc2)n1Cc1ccccc1`, the melting point is 179 to 181 °C.
Molecule `COc1ccc(Sc2ccc(N)cc2)cc1` gave a melting point of 93 to 95 °C.
Next, `O=C(O)Cn1ccc2cc([N+](=O)[O-])ccc21`: 192 to 194 °C.
Regarding `Oc1ccc(Nc2nnns2)cc1`, the melting point lay in the range of 159 to 161 °C.
Next, `CCOC(=O)c1c(CCCO)cnc2nc(C(=O)OC)nn12`: 86 to 88 °C; `Cc1cc(CC(=O)NN)[nH]n1`: 151 to 153 °C.
For `COCCOc1ccc(Cl)c(C(=O)O)n1` the value was 89 to 91 °C; for `O=C(O)c1ccc(COc2cccc(Br)c2)o1`, 171 to 173 °C; for `O=C1NCCOc2ccccc21`, 110 to 112 °C.
Regarding `O=S(=O)(Cl)N1CC2CCC1C2` (stereo not given), the melting point is 47 to 49 °C.
Turning to `COc1cccc(C(N)(C(=O)O)C(F)(F)F)c1` (stereo not given), the melting point lay in the range of 139 to 141 °C.
Next, `COc1ccc(-n2ccnc2S)c(C)c1`: 238 to 240 °C; `Cc1cc(CC#N)c(C)n1-c1ccc(Cl)cc1`: 74 to 76 °C; `CC(C)(C)n1cc(C(=O)O)c(-c2ccc(F)cc2F)n1`: 145 to 147 °C.
Take `Brc1nnc(Cc2ccccc2)s1`: the melting point lay in the range of 79 to 81 °C.
`CC(=O)Cn1c(CCl)nc2ccccc2c1=O` gave a melting point of 167 to 169 °C.
For `O=C(O)c1ccc(S(=O)(=O)Cl)c(Br)c1`, the melting point lay within 206 to 208 °C.
Consider `COC(=O)C(=O)CC(=O)c1c(F)cccc1F`, for which the melting point fell in the range of 88 to 90 °C.
Next, `COCC(=O)Nc1cccc(N)c1`: 82 to 84 °C; `Cc1nn(C)c(C(F)F)c1C(=O)O`: 165 to 167 °C; `Nc1cc(F)c(F)cc1Br`: 47 to 49 °C.
Next, `Nc1ccc(N2CCOC2=O)cc1`: 149 to 151 °C; `CCOC(C)C(N)=NO` (stereo not given): 88 to 90 °C.
On to `O=c1cc(CCl)nc2ccccn12`, for which the melting point lay within 173 to 175 °C.
Next, `Cc1nn(-c2cccc(C(F)(F)F)c2)c2sc(C(=O)O)cc12`: 271 to 273 °C; `CCOC(=O)C(=O)c1ncc(Cl)n1C`: 46 to 48 °C; `O=C(O)CNC(=O)c1ccc(Br)cc1`: 160 to 162 °C.
`Cc1ccc(N2C(=O)CC(C(=O)O)C2c2cccs2)cc1` (stereo not given) yielded a melting point of 175 to 177 °C.
In turn, `COc1ccccc1NC(=O)c1cc2ccccc2cc1O` returned a melting point of 161 to 164 °C.
For `NC(=NO)c1cccc(Br)c1` the value was 132 to 134 °C.
For `Nc1c[nH]nc1-c1ccccc1` the value was 147 to 149 °C; for `CC1(C)NC(=O)N(CCC(=O)NN)C1=O`, 176 to 178 °C.
For `O=C1CCC2(CC1)C(=O)Nc1ccccc12` the value was 198 to 200 °C; for `CN1CCN(S(N)(=O)=O)C(c2ccccc2)C1` (stereo not given), 109 to 111 °C; for `O=C(c1ccccc1)c1ccc(Br)cc1F`, 76 to 78 °C.
In turn, `Clc1ccc2cc(Br)ccc2n1` gave a melting point of 159 to 161 °C.
Turning to `Cc1ccc(S(=O)(=O)N2CCOCC2)cc1C(=O)O`, the melting point lay within 148 to 152 °C.
Next, `OCc1cc(Br)cc(CO)c1O`: 164 to 166 °C; `COC(=O)c1nnc2c(Cl)cccn12`: 52 to 55 °C; `Nc1cc(C(=O)O)c(F)cc1F`: 169 to 171 °C.
For `Nc1ccc(-c2nnc3n2CCC3)cc1` the value was 311 to 313 °C.
Next, `O=C(O)c1cnn(CCCl)c1`: 147 to 149 °C; `CCc1cc(NN)nc(-c2ccccn2)n1`: 110 to 112 °C; `COc1ccc(-c2n[nH]c(=O)c3ccccc23)cc1`: 238 to 240 °C.
Molecule `Cc1ccc(N)cc1N1C(=O)CCC1=O` returned a melting point of 199 to 201 °C.
Next, `Cn1ccnc1C(O)(CCN)C(F)(F)F` (stereo not given): 115 to 117 °C; `CCCOc1c(Cl)cc(C#N)cc1OC`: 31 to 33 °C.
`NC(=O)c1ccc(CNc2cccc(F)c2)cc1` displayed a melting point of 155 to 157 °C.
Molecule `O=C(O)Cc1cn2ccsc2n1` returned a melting point of 180 to 184 °C.
Molecule `OCc1cc(C23CC4CC(CC(C4)C2)C3)n[nH]1` yielded a melting point of 159 to 161 °C.
Next, `Cn1nc(C(C)(C)C)c2cc(C(=O)O)cnc21`: 243 to 245 °C.
Next, `Cc1cc([N+](=O)[O-])c(Cl)cc1F`: 43 to 45 °C; `O=C(O)c1cnn(-c2ccc(Cl)cc2)c1`: 237 to 239 °C; `O=C(O)c1cc(S(=O)(=O)NCCOc2ccccc2)ccc1Cl`: 169 to 171 °C.
Next, `CC(=O)c1c(C)[nH]c(N=Nc2cccc(C(=O)O)c2)c1C`: 203 to 205 °C; `Cc1ccc2c(O)c(C(=O)O)cnc2n1`: 279 to 281 °C.
Consider `Cn1c(S)nc2sc3c(c2c1=O)CCCC3`, for which the melting point was in the range of 304 to 306 °C.
As for `O=C(O)CN(CC(=O)O)Cc1ccccc1`, the melting point lay in the range of 200 to 202 °C.
Consider `O=Cc1ccc(-c2cccc(F)c2)s1`, for which the melting point lay in the range of 101 to 103 °C.
Regarding `COc1ccc(N2CCC(=O)CC2)cc1`, the melting point lay within 66 to 68 °C.
Next, `COC(=O)c1ccc(C(=O)O)cn1`: 210 to 212 °C.
For `Fc1ccc2nc(NCc3ccccc3)sc2c1` the value was 182 to 184 °C.
`Nc1cccc(-c2c3c(=O)[nH][nH]c(=O)c3c3n2CCC3)c1` registered a melting point of 331 to 333 °C.
`OC1(CNCc2ccccc2)CCc2ccccc21` (stereo not given): the melting point was in the range of 54 to 56 °C.
Molecule `Nc1ccc2c(N)n[nH]c2c1` registered a melting point of 209 to 211 °C.
For `CCOC(=O)C(C)(C#N)Cc1ccncc1` (stereo not given) the value was 56 to 58 °C.
Turning to `O=C(O)c1oc2ccccc2c1Cn1cccn1`, the melting point was in the range of 226 to 228 °C.
For the molecule `OC1CCCC1N1CCN(c2cccc(Cl)c2)CC1` (stereo not given), the melting point was 99 to 101 °C.
`CS(=O)(=O)N1CCNC(=O)C1` displayed a melting point of 164 to 166 °C.
Molecule `COc1ccc(C(=O)C(F)(F)F)cc1OC` yielded a melting point of 77 to 79 °C.
The molecule `c1ccc(-c2ccc3[nH]ccc3c2)cc1` came in with a melting point of 74 to 76 °C.
Next, `Cc1ccc(C(=O)c2cccnc2)cc1`: 71 to 73 °C.

Usually melting point stands for the temperature, or range, at which the solid turns liquid.

The values above are taken from a melting point compilation (Tetko et al.).
